From patent US20150209379A1, “TREATMENT OF PROSTATE CANCER AND HEMATOLOGIC NEOPLASMS” (THOMAS JEFFERSON UNIVERSITY, priority 2012, published 2015)

Target: T1, Stat5a (Homo sapiens, UniProt P42229)
T1 sequence (P42229 1-794): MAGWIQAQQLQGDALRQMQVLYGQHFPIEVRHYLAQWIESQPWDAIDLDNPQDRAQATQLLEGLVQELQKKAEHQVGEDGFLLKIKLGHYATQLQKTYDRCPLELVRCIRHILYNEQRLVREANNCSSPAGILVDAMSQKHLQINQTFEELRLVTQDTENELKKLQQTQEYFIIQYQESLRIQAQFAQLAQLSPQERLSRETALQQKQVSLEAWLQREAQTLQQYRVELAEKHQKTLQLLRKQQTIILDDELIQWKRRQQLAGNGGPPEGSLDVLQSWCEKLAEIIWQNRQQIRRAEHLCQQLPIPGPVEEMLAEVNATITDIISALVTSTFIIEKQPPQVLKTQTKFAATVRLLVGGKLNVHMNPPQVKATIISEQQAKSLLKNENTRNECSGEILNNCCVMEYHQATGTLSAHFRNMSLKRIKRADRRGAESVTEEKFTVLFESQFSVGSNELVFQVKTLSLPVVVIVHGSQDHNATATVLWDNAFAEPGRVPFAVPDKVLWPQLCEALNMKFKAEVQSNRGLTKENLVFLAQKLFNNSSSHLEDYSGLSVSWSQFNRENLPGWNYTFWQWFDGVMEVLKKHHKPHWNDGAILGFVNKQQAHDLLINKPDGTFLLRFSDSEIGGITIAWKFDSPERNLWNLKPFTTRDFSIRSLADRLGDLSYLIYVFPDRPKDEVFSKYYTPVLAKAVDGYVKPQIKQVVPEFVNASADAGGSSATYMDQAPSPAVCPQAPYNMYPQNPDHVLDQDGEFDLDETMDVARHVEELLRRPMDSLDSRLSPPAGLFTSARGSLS
Experiment: Stat5a dimerization (FLAG-/MYC-tagged Stat5a co-immunoprecipitation) in PC-3 cells
Format: cell-based
Set-up: expressed in transfected cells; host or cells: PC-3 human prostate cancer cells
Settings: 2 hours pretreatment, then hPrl 10 nM 30 minutes
Method: (§1) FLAG-tagged Stat5a and MYC-tagged Stat5a were generated by standard molecular biology cloning techniques. Plasmid pCMV3-FLAG-Stat5a, pCMV3-MYC-Stat5a and pPr1R were co-transfected using FuGENE6 (Roche) into PC-3 cells (2 μg of each plasmid per 1×10^7 cells). The cells were starved for 20 hours, pretreated with test compound for 2 hours, then stimulated with hPrl (10 nM) in RPMI 1640 without serum for 30 minutes. The cell lysates were immunoprecipitated with 25 μl anti-FLAG M2 […] affinity gel (2 μg/ml, Sigma), anti-MYC pAb (1 μg/ml, Upstate) or normal rabbit serum (NRS). The primary antibodies were used in the immunoblottings at the following concentrations: anti-FLAG pAb (1:1000; Stratagene), anti-MYC mAb (1:1000; Sigma), anti-Stat5a/b mAb (1:250) (Transduction Laboratories) detected by horseradish peroxidase-conjugated secondary antibodies. The results are shown in FIG. 3A for Compound 1 and FIG. 3B for Compound 2.
Lanes 1, 2, 4, 6 and 8 represent cells stimulated with human prolactin (Prl) for 30 minutes which induces dimerization of Stat5. Two hours prior to Prl-stimulation, the cells had been treated with DMSO (lanes 1-4), the control compound C5 (lanes 7 and 8) and either Compound 1 (lanes 5 and 6 in FIG. 3A) or Compound 2 (lanes 5 and 6 in FIG. 3B). […] It should be noted the drug effect in this study was not due to cell apoptosis induction, as the treatment time was only 2 hours. Treatment of at least 48 hours is required for the compound to induce prostate cancer cell apoptosis.
as §1, with “and pPrlR” for “and pPr1R”, “hours, pre-treated” for “hours, pretreated”, “with NBPP” for “with test compound”, “2 h,” for “2 hours,”, “antibodies.” for “antibodies. The results are shown in FIG. 3A for Compound 1 and FIG. 3B for Compound 2.”
Lanes 1, 2, 4, 6 and 8 represent cells stimulated with human prolactin (Prl) for 30 minutes which induces dimerization of Stat5. Two hours prior to Prl-stimulation, the cells had been treated with DMSO (lanes 1-4), the control compound C5 (lanes 5 and 6) or NBPP (lanes 7 and 8) to test whether the Stat5a/b-inhibitor compound, NBPP, would be able to inhibit dimerization of StatS. […] It should be noted the drug effect in this study was not due to cell apoptosis induction, as the treatment time was only 2 hours. Treatment of at least 48 hours is required for the compound to induce prostate cancer cell apoptosis.
FLAG-tagged Stat5a and MYC-tagged Stat5a were generated by standard molecular biology cloning techniques.as follows. […] The primary antibodies were used in the immunoblottings at the following concentrations: anti-FLAG pAb (1:1000; Stratagene), anti-MYC mAb (1:1000; Sigma), anti-Stat5a/b mAb (1:250) (Transduction Laboratories) detected by horseradish peroxidase-conjugated secondary antibodies. […]

effect on Stat5a dimerization: did not inhibit dimerization of Stat5a
Structure (SMILES): Nc1nc(SCc2cccnc2)[nH]c(=O)c1NC(=O)c1ccco1 [Compound C5, reference compound]
